Data published in patent publication US9504685B2, “Method for treating a pulmonary hypertension condition” (Gilead Sciences, Inc., priority 2006, dated 2016).

System: subjects with PAH
Test: Example 2 (ARIES-1) placebo-controlled Phase III trial, efficacy
Format: in vivo, human
Conditions: for change from baseline in mean 6MWD at Week 12: subjects who received supplemental oxygen
Method: The primary objective of this study was to determine the effect of ambrisentan on exercise capacity in subjects with pulmonary arterial hypertension (PAH). The secondary objectives of this study were to evaluate effects of ambrisentan on other clinical measures of PAH, as well as safety and tolerability of the study drug.
Study drug was provided in round, biconvex, oral tablets that were identical in appearance. Three strengths of active study drug containing 2.5 mg, 5 mg or 10 mg of ambrisentan were used in this study. All study drug was packaged in blister cards. Subjects were instructed to take study drug once daily (q.d.) by mouth (p.o.) in the morning, with or without food.
The maximum study duration was up to 14 weeks from the time of initial screening procedures to the final study visit (Week 12). Screening procedures were performed a maximum of 2 weeks prior to the first dose of study drug. The maximum duration of study drug treatment was 12 weeks.
Men and women, 18 years of age or older, with idiopathic PAH, PAH associated with CTD, e.g., mixed CTD, CREST syndrome, systemic sclerosis (scleroderma), overlap syndrome or systemic lupus erythematosus, or PAH associated with anorexigen use or HIV infection were enrolled in this study. Subjects were to have a documented mean PAP≧25 mmHg, PVR>3 mmHgL/min, and PCWP or LVEDP<15 mmHg. Subjects must have been able to walk a distance of at least 150 m but no more than 450 m during 2 consecutive 6MWTs to be eligible for inclusion in the study.
After a 2 week screening period, eligible subjects were stratified based on the underlying etiology of PAH (idiopathic or non-idiopathic) and were randomized to 1 of 3 treatment groups (placebo, 5 mg or 10 mg ambrisentan) in a ratio of 1:1:1. One blinded dose reduction was permitted during the 12-week treatment period in the event of study drug intolerance (e.g., 10 mg to 5 mg, 5 mg to 2.5 mg, placebo to placebo). Subjects received a daily dose of 2.5 mg ambrisentan only if they reduced from the 5 mg dose group. Subjects were assessed for efficacy and safety at monthly intervals.
Therefore, after a minimum treatment period of 4 weeks, subjects who met 2 or more of the following predefined early escape criteria may have been removed from the study: • (a) a decrease from baseline of at least 20% in 6MWD; • (b) an increase of 1 or more WHO functional class; • (c) worsening right ventricular failure (e.g., as indicated by increased jugular venous pressure, new or worsening hepatomegaly, ascites or peripheral edema); • (d) rapidly progressing cardiogenic, hepatic or renal failure; and/or • (e) refractory systolic hypotension (systolic blood pressure <85 mmHg).
The primary efficacy endpoint was change from baseline in 6MWD evaluated after 12 weeks of treatment compared to placebo.
The secondary efficacy endpoints included: • (a) time to clinical worsening of PAH, as defined by the time from randomization to the first occurrence of death, lung transplantation, hospitalization for PAH, atrial septostomy, study discontinuation due to addition of other PAH therapeutic agents, or study discontinuation due to 2 or more early escape criteria; • (b) change from baseline measured after 12 weeks of treatment compared to placebo in: • (i) WHO functional class; • (ii) SF-36® health survey physical functioning scale; • (iii) BDI immediately following exercise; and/or • (iv) an assessment of the safety and tolerability of the study drug; and • (c) change from baseline measured after 12 weeks of treatment compared to placebo in plasma levels of ET-1, BNP and cTnT. Safety Assessments
For the ITT population, subjects were considered as belonging to their randomized treatment group, regardless of the actual treatment received.
The primary efficacy endpoint was the change from baseline in 6MWD evaluated after 12 weeks of treatment compared to placebo, where the last observation was carried forward. […]

[1] = 10 mg once daily, baseline to Week 12
[2] = combined 5 mg and 10 mg groups, 12 weeks
[3] = combined 5 mg and 10 mg groups, Week 12
[4] = combined 5 mg and 10 mg groups, baseline to Week 12

SMILES: COC(c1ccccc1)(c1ccccc1)[C@H](Oc1nc(C)cc(C)n1)C(=O)O [ambrisentan]
- Change in SF-36 Social functioning, mean (SD) [1]: +4.11 ± 11.77
- Change in SF-36 Vitality, mean (SD) [1]: +5.03 ± 10.07
- Change in WHO functional class: +1 class [1]: 3 (4.5) subjects (% of ITT population)
- Change in WHO functional class: +2 classes [1]: 0 (0.0) subjects (% of ITT population)
- Change in WHO functional class: no change [1]: 44 (65.7) subjects (% of ITT population)
- Change in WHO functional class: −1 class [1]: 15 (22.4) subjects (% of ITT population)
- Change in WHO functional class: −2 classes [1]: 5 (7.5) subjects (% of ITT population)
- placebo-adjusted 6MWD increase from baseline at Week 12 (WHO class I/II subgroup, 5 mg once daily): +25.6 m
- placebo-adjusted 6MWD increase from baseline at Week 12 (WHO class I/II subgroup, 10 mg once daily): +42.0 m
- placebo-adjusted 6MWD increase from baseline at Week 12 (WHO class III/IV subgroup, 5 mg once daily): +34.1 m
- placebo-adjusted 6MWD increase from baseline at Week 12 (WHO class III/IV subgroup, 10 mg once daily): +56.9 m
- placebo-adjusted BDI at Week 12 (combined 5 mg and 10 mg groups): −0.6
- Clinical worsening event: Atrial septostomy [2]: 0 (0.0) subjects (% of ITT population)
- Clinical worsening event: Death [2]: 2 (1.5) subjects (% of ITT population)
- Clinical worsening event: Escape criteria [2]: 2 (1.5) subjects (% of ITT population)
- Clinical worsening event: Hospitalization for PAH [2]: 4 (3.0) subjects (% of ITT population)
- Clinical worsening event: Lung transplantation [2]: 0 (0.0) subjects (% of ITT population)
- Clinical worsening event: Study discontinuation due to addition of PAH treatment [2]: 1 (0.7) subjects (% of ITT population)
- Clinical worsening: Total subjects with ≧1 event [2]: 6 (4.5) subjects (% of ITT population)
- Change in 6MWD from baseline to Week 12, mean (combined 5 mg and 10 mg groups, ITT population): +33.2 meters
- subjects who deteriorated by at least 1 WHO class [3]: 3.0%
- subjects who had an improvement of 2 WHO classes [3]: 4.5%
- Change in SF-36 Bodily pain, mean (SD) [4]: +0.42 ± 12.81
- Change in SF-36 General health, mean (SD) [4]: +1.66 ± 8.74
- Change in SF-36 Mental component summary, mean (SD) [4]: +1.30 ± 11.89
- Change in SF-36 Mental health, mean (SD) [4]: +1.18 ± 11.23
- Change in SF-36 Physical component summary, mean (SD) [4]: +3.34 ± 8.40
- Change in SF-36 Role-emotional, mean (SD) [4]: +2.19 ± 15.71
- Change in SF-36 Role-physical, mean (SD) [4]: +5.45 ± 10.47
- Change in SF-36 Social functioning, mean (SD) [4]: +2.61 ± 12.78
- Change in SF-36 Vitality, mean (SD) [4]: +3.71 ± 10.11
- Change in WHO functional class: +1 class [4]: 4 (3.0) subjects (% of ITT population)
- Change in WHO functional class: +2 classes [4]: 0 (0.0) subjects (% of ITT population)
- Change in WHO functional class: no change [4]: 91 (67.9) subjects (% of ITT population)
- Change in WHO functional class: −1 class [4]: 33 (24.6) subjects (% of ITT population)
- Change in WHO functional class: −2 classes [4]: 6 (4.5) subjects (% of ITT population)
- placebo-adjusted 6MWD increase from baseline at Week 12 (female subjects, 5 mg once daily): +30.9 m
- placebo-adjusted 6MWD increase from baseline at Week 12 (female subjects, 10 mg once daily): +57.7 m
- placebo-adjusted 6MWD increase from baseline at Week 12 (idiopathic PAH subgroup, 5 mg once daily): +42.9 m
- placebo-adjusted 6MWD increase from baseline at Week 12 (idiopathic PAH subgroup, 10 mg once daily): +56.9 m
- placebo-adjusted 6MWD increase from baseline at Week 12 (male subjects, 5 mg once daily): +19.9 m
- placebo-adjusted 6MWD increase from baseline at Week 12 (male subjects, 10 mg once daily): +13.1 m
- placebo-adjusted 6MWD increase from baseline at Week 12 (non-idiopathic PAH subgroup, 5 mg once daily): +10.2 m
- placebo-adjusted 6MWD increase from baseline at Week 12 (non-idiopathic PAH subgroup, 10 mg once daily): +43.0 m
- placebo-adjusted 6MWD increase from baseline at Week 12 (subjects not receiving calcium channel blockers, 5 mg once daily): +38.7 m
- placebo-adjusted 6MWD increase from baseline at Week 12 (subjects not receiving calcium channel blockers, 10 mg once daily): +67.9 m
- reduction in the probability of clinical worsening (hazard ratio) compared to placebo (subjects receiving ambrisentan (combined group), 12 weeks): 50%
- subjects hospitalized for PAH (subjects receiving ambrisentan (combined), 12 weeks): 3.0%
- placebo-adjusted 6MWD increase from baseline at Week 12 (subjects receiving calcium channel blockers, 5 mg once daily): +15.1 m
- placebo-adjusted 6MWD increase from baseline at Week 12 (subjects receiving calcium channel blockers, 10 mg once daily): +19.6 m
- change from baseline in mean 6MWD at Week 12 (5 mg once daily): +21.1 m
- change from baseline in mean 6MWD at Week 12 (10 mg once daily): +48.0 m
